The subject of one series is Botrytis cinerea. To be noted: samples at equivalent concentrations (0.2 M).
Series [1] can be described thus: pH of an aqueous solution of the compound (pH meter). The class given is physicochemical. To be noted: for pH: sample solution of Table 13 (0.2 M H2O2 and/or citrate).
For series [2] the following is noted: other compound containing hydrogen peroxide, dissolved; cited from earlier work.

On to `O=C(O)CC(O)(CC(=O)O)C(=O)O` [Acide citrique, Citric acid], for which the “MIC Botrytis” value in the series with Botrytis cinerea is listed as “non actif”. Consider `O.O.O.O=C([O-])CC(O)(CC(=O)[O-])C(=O)O.O=C([O-])CC(O)(CC(=O)[O-])C(=O)O.[Na+].[Na+].[Na+].[Na+]` [Disodium citrate sesquihydrate], for which the pH in series [1] was determined as 4.9. For the same molecule, in the series on Botrytis cinerea, the “MIC Botrytis” value is “non actif”. On the same counts, the results for `OO` [Hydrogen peroxide] are 6.4 and “non actif”. With `O=C([O-])[O-].O=C([O-])[O-].OO.OO.OO.[Na+].[Na+].[Na+].[Na+]` [sodium percarbonate], the “pH obtained by dissolving” value in series [2] is recorded as 11. On to `O.O.O=C([O-])CC(O)(CC(=O)[O-])C(=O)[O-].OO.[Na+].[Na+].[Na+]` [trisodium citrate monoperhydrate dihydrate], for which the “pH of an aqueous solution” value in series [1] (diluted 20× in water) is recorded as 7.6 (±0.3). Besides, in series [1], the pH amounted to 8.2. For the same molecule, the “MIC Botrytis” value in the series with Botrytis cinerea came out at 72 mM. Turning to “anhydrous disodium citrate monoperhydrate [disodium citrate perhydrate]”, the “MIC Botrytis” value with Botrytis cinerea is given as 108 mM.
